Measured values from patent US6608086B2, “Dihydropyridines and new uses thereof” (Synaptic Pharmaceutical Corporation, priority 1993, dated 2003).
Read-outs that look alike come from different tables or passages of the source.

Assays:
[1] = biological target: T1, α1B Human Adrenergic Receptor (Homo sapiens, UniProt P35368); experiment: Radioligand binding, [3H]prazosin, cloned human α1B adrenergic receptor
T1 construct: The entire coding region of α1B (1563 bp); expressed in transfected cells
T1 sequence (P35368 1-520): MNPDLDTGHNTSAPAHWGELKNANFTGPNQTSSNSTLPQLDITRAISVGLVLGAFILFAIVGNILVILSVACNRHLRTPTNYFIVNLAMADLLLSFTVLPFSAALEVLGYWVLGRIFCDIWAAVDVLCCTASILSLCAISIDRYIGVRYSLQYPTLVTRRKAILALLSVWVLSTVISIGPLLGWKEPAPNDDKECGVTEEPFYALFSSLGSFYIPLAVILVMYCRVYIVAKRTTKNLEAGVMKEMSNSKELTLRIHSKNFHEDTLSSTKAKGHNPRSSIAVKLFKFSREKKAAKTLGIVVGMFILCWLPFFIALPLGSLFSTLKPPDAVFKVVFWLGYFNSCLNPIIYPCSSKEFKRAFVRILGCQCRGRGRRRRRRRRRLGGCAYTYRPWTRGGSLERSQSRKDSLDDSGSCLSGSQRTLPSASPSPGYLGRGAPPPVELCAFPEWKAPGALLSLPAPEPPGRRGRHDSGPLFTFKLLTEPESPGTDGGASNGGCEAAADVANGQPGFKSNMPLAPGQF
Procedure, shortened: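 Membranes from stably transfected LM(tk−) cells, resuspended in 50 mM Tris-HCl, 1 mM MgCl2, 0.1% ascorbic acid, pH 7.5, were incubated with 0.5 nM [3H]prazosin for 20 min at 37° C. Nonspecific binding defined with 10 μM phentolamine; bound ligand separated by GF/B filtration.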

[2] = pKi alpha-1 1b, cloned human receptor in LM(tk-) cell membranes, SEM and n in lines below
[3] = cloned human receptor in LM(tk-) cell membranes, SEM and n in lines below, read-out: pKi alpha-1 1b (converted)
[4] = pKi alpha-1 1b, cloned human α1B receptor, LM(tk−) cell membranes

**Q.** With CC1=C(C(N)=O)C(c2cccc([N+](=O)[O-])c2)C(C(=O)NCCCN2CCC(c3ccccc3)(c3ccccc3)CC2)=C(C)N1 (stereo not shown) [Example 61, 5-Carboxamido-1,4-dihydro-2,6-dimethyl-4-(3-nitrophenyl)-3-{N-[3-(4,4-diphenylpiperidin-1-yl)propyl]}carboxamidopyridine] as the molecule, how does the melting point read?
**A.** 144 to 148 °C

**Q.** And the Ki [1, 2]?
**A.** 427 nM

**Q.** What does the source list for COC(=O)C1=C(C)NC(C)=C(C(=O)NCCCN2CCC(c3ccccc3)(c3ccccc3)CC2)C1c1ccc(C(=O)OC)cc1 (stereo not shown) [Example 25, 1,4-Dihydro-3-methoxycarbonyl-4-(4-methoxycarbonylphenyl)-2,6-dimethyl-5-(N-(3-(4,4-diphenylpiperidin-1-yl)propyl)carboxamide)pyridine]?
**A.** melting point: 175.5 to 176 °C; Ki [1, 3]: 331 nM

**Q.** Which melting point does the source give for COC(=O)C1=C(C)NC(C)=C(C(=O)NCCCN2CCC(c3ccccc3)(c3ccccc3)CC2)C1c1ccc(C(C)C)cc1 (stereo not shown) [Example 18, 1,4-Dihydro-4-(4-isopropylphenyl)-3-methoxycarbonyl-2,6-dimethyl-5-(N-(3-(4,4-diphenylpiperidin-1-yl)propyl)carboxamido)pyridine] here?
**A.** 163 to 163.5 °C

**Q.** And the Ki [1, 3]?
**A.** 174 nM

**Q.** What does the source list for CCC1=C(C(N)=O)C(c2ccc(S(C)(=O)=O)cc2)C(C(=O)NCCCN2CCC(c3ccccc3)(c3ccccc3)CC2)=C(C)N1 (stereo not shown) [Example 118, 3-Carboxamido-2-ethyl-1,4-dihydro-4-(4-methanesulfonylphenyl)-6-methyl-3-(N-(3-(4,4-diphenylpiperidin-1-yl)propyl)carboxyamido)-pyridine]?
**A.** melting point: 182 to 183 °C; Ki [1, 4]: 1780 nM

**Q.** With CCNC(=O)C1=C(COCCN=[N+]=[N-])NC(CC)=C(C(=O)NCCCN2CCC(c3ccccc3)(c3ccccc3)CC2)C1c1ccc([N+](=O)[O-])cc1 (stereo not shown) [Example 147, 2-((2-Azidoethyl)oxy)methyl-6-ethyl-3-(N-ethyl)carboxamido-1,4-dihydro-4-(4-nitro)phenyl-5-(N-(3-(4,4-diphenylpiperidin-1-yl-)propyl))carboxamidopyridine] as the molecule, how does the melting point read?
**A.** 83 to 87 °C

**Q.** And the Ki [1, 4]?
**A.** 257 nM

**Q.** Which results are given for COC(=O)C1=C(C)NC(C)=C(C(=O)NCCCN2CCC(c3ccccc3)(c3ccccc3)CC2)C1Cc1ccccc1 (stereo not shown) [Example 8, 4-Benzyl-1,4-dihydro-3-methoxycarbonyl-2,6-dimethyl-5-(N-(3-(4,4-diphenylpiperidin-1-yl)propyl)carboxamido)pyridine]?
**A.** melting point: 175 to 177 °C; Ki [1, 2]: 186 nM

**Q.** Which melting point does the source give for COC(=O)C1=C(C)NC(C)=C(C(=O)NCCCN2CCC(c3ccccc3)(c3ccccc3)CC2)C1c1ccc2c(c1)OCO2 (stereo not shown) [Example 11, 1,4-Dihydro-3-methoxycarbonyl-2,6-dimethyl-4-(3,4-methylenedioxyphenyl)-5-(N-(3-(4,4-diphenylpiperidin-1-yl)propyl)carboxamido)pyridine] here?
**A.** 197 to 200 °C

**Q.** What about the Ki [1, 3] of the same molecule?
**A.** 229 nM

**Q.** Which melting point does the source give for COC(=O)C1=C(C)NC(C)=C(C(=O)NCCCN2CCC(c3ccccc3)(c3ccccc3)CC2)C1c1ccc(Cl)c([N+](=O)[O-])c1 (stereo not shown) [Example 16, 4-(4-Chloro-3-nitrophenyl)-1,4-dihydro-3-methoxycarbonyl-2,6-dimethyl-5-(N-(3-(4,4-diphenylpiperidin-1-yl)propyl)carboxamido)pyridine] here?
**A.** 178 to 181 °C

**Q.** What about the Ki [1, 3] of the same molecule?
**A.** 174 nM

**Q.** With COC(=O)C1=C(C)NC(C)=C(C(=O)NCCCN2CCC(c3ccccc3)(c3ccccc3)CC2)C1c1ccc(OC)c(OC)c1 (stereo not shown) [Example 26] as the molecule, how does the melting point read?
**A.** 180 to 181 °C

**Q.** What about the Ki [1, 3] of the same molecule?
**A.** 437 nM

**Q.** For CCC1=C(C(=O)NCCCN2CCC(c3ccccc3)(c3ccccc3)CC2)C(c2ccc([N+](=O)[O-])cc2)C(C(=O)OC(C)(C)C)=C(COCCN=[N+]=[N-])N1 (stereo not shown) [Example 139], which melting point is on record?
**A.** 62 to 67 °C

**Q.** And the Ki [1, 4]?
**A.** 141 nM

**Q.** With CNC(=O)C1=C(C)NC(C)=C(C(=O)NCCCN2CCC(O)(c3ccccc3)CC2)C1c1ccc([N+](=O)[O-])cc1 (stereo not shown) [Example 162, 1,4-Dihydro-3-{N-[3-(4-hydroxy-4-phenylpiperidin-1-yl)propyl]}carboxamido-2,6-dimethyl-5-(N-methyl)carboxamido-4-(4-nitrophenyl)pyridine] as the molecule, how does the melting point read?
**A.** 87 to 91 °C

**Q.** What about the Ki [1, 4] of the same molecule?
**A.** 257 nM

**Q.** With CC1=C(C(=O)NCCCN2CCC(c3ccccc3)(c3ccccc3)CC2)C(c2ccc([N+](=O)[O-])cc2)c2c([nH]c(=O)[nH]c2=O)N1 (stereo not shown) [Example 64] as the molecule, how does the melting point read?
**A.** 184 to 186 °C

**Q.** And the Ki [1, 2]?
**A.** 355 nM

**Q.** Which melting point does the source give for COC(=O)C1=C(C)NC(C)=C(C(=O)NCCCN2CCC(c3ccccc3)(c3ccccc3)CC2)C1c1ccncc1 (stereo not shown) [Example 5, 1,4-Dihydro-5-methoxycarbonyl-2,6-dimethyl-3-(N-(3-(4,4-diphenylpiperidin-1-yl)propyl)carboxamido)-4-(4-pyridyl)pyridine] here?
**A.** 224 to 226 °C (dec.)

**Q.** And the Ki [1, 3]?
**A.** 832 nM

**Q.** For COC(=O)C1=C(C)NC(C)=C(C(=O)NCCCN2CCC(c3ccccc3)(c3ccccc3)CC2)C1c1ccc(Cl)cc1 (stereo not shown) [Example 10, 4-(4-Chlorophenyl)-1,4-dihydro-5-methoxycarbonyl-2,6-Dimethyl-5-(N-(3-(4,4-diphenylpiperidin-1-yl)propyl)carboxamido)pyridine], which melting point is on record?
**A.** 240 to 242 °C

**Q.** And the Ki [1, 3]?
**A.** 123 nM

**Q.** What does the source list for COC(=O)C1=C(C)NC(C)=C(C(=O)NCCCN2CCC(c3ccccc3)(c3ccccc3)CC2)C1c1ccc(C)cc1 (stereo not shown) [Example 19, 1,4-Dihydro-3-methoxycarbonyl-1,6-dimethyl-4-(4-methylphenyl)-5-(N-(3-(4,4-diphenylpiperidin-1-yl)propyl)carboxamido)pyridine]?
**A.** melting point: 234 to 235 °C; Ki [1, 3]: 269 nM

**Q.** Which results are given for COC(=O)C1=C(C)NC(C)=C(C(=O)NCCCN2CCC(c3ccccc3)(c3ccccc3)CC2)C1c1ccc(F)cc1 (stereo not shown) [Example 20, 4-(4-Fluorophenyl)-1,4-dihydro-3-methoxycarbonyl-2,6-dimethyl-5-(N-(3-(4,4-diphenylpiperidin-1-yl)propyl)carboxamido)pyridine]?
**A.** melting point: 251 to 251.5 °C; Ki [1, 3]: 120 nM

**Q.** Which melting point does the source give for COC(=O)C1=C(C)NC(C)=C(C(=O)NCCCN2CCC(c3ccccc3)(c3ccccc3)CC2)C1C1CCCCC1 (stereo not shown) [Example 6] here?
**A.** 171 to 174 °C

**Q.** And the Ki [1, 3]?
**A.** 204 nM

**Q.** What does the source list for COC(=O)C1=C(C)NC(C)=C(C(=O)NCCCN2CCC(c3ccccc3)(c3ccccc3)CC2)C1c1ccc([N+](=O)[O-])c(OC)c1 (stereo not shown) [Example 29, 1,4-Dihydro-3-methoxycarbonyl-4-(3-methoxy-4-nitrophenyl)-2,6-dimethyl-5-(N-(3-(4,4-diphenylpiperidin-1-yl)propyl)carboxamido)pyridine]?
**A.** melting point: 211 to 213 °C; Ki [1, 2]: 141 nM

**Q.** Which melting point does the source give for CCC1=C(C(=O)NCCCN2CCC(c3ccccc3)(c3ccccc3)CC2)C(c2cccc(OC)c2)C(C(N)=O)=C(C)N1 (stereo not shown) [Example 113, 5-Carboxamide-2-ethyl-1,4-dihydro-4-(3-methoxyphenyl)-6-methyl-3-(N-(3-(4,4-diphenylpiperidin-1-yl)propyl)carboxamido)-pyridine] here?
**A.** 120 to 123 °C

**Q.** What about the Ki [1, 4] of the same molecule?
**A.** 347 nM

**Q.** With CCC1=C(C(=O)NCCCN2CCC(c3ccccc3)(c3ccccc3)CC2)C(c2cccc(OC)c2)C(C(=O)NCCCN2CCC(c3ccccc3)(c3ccccc3)CC2)=C(CC)N1 [Example 112, 2,6-Diethyl-1,4-dihydro-4-(3-methoxyphenyl)-3,5-bis(N-(3-(4,4-diphenylpiperidin-1-yl)propyl)carboxamido)-pyridine] as the molecule, how does the melting point read?
**A.** 166 to 170 °C

**Q.** And the Ki [1, 4]?
**A.** 23.4 nM
